Patent publication US10947251B2, “Therapeutic compounds and methods of use thereof” (GENENTECH, INC., priority 2018, dated 2021)

Experiments:
hNav1.7 [1] = biological target: T1, hNav1.7 (Homo sapiens (Human), UniProt Q15858); assay: Tritiated compound binding to membranes from cells heterologously expressing hNav1.7 and the β1 subunit (LBA); details: competitive binding vs [3H]compound, membranes with hNav1.7 and β1 subunit; read-out: Nav1.7 LBA EVO IC50
Description: Example 39A. Tritiated Compound Binding to Membranes Isolated from Cells that Heterologously Express hNav1.7 and the β1 Subunit
Preparation of membranes containing recombinantly expressed sodium channels: Frozen recombinant cell pellets were thawed on ice and diluted to 4 times the cell pellet weight with ice cold 50 mM Tris HCl, pH 7.4 buffer. The cell suspensions were homogenized on ice using a motorized glass dounce homogeniser. Homogenates were further diluted 8.4 times with ice cold 50 mM Tris HCl, pH 7.4 buffer and then centrifuged at 200×g at 4° C. for 15 min. The supernatants were collected and centrifuged at 10000×g at 4° C. for 50 min. The pellets were then re-suspended in 100 mM NaCl, 20 mM Tris HCl, pH 7.4 buffer containing 1% v/v protease inhibitors (Calbiochem) and re-homogenized on ice. The homogenized membranes were then processed through a syringe equipped with a 26 gauge needle. Protein concentrations were determined by Bradford Assay and the membranes were stored at −80° C.
Saturation experiments. A competitive NaV1.7 inhibitor having a methyl group was tritiated. Three tritiums were incorporated in place of methyl hydrogens to generate [^3H]compound. Binding of this radioligand was performed in 5 mL borosilicate glass test tubes at room temperature. Binding was initiated by adding membranes to increasing concentrations of [^3H]compound in 100 mM NaCl, 20 mM Tris HCl, pH 7.4 buffer containing 0.01% w/v bovine serum albumin (BSA) for 18 h. Non-specific binding was determined in the presence of 1 μM unlabeled compound. After 18 h, the reactants were filtered through GF/C glass fiber filters presoaked in 0.5% w/v polyethylene imine. Filters were washed with 15 mL ice cold 100 mM NaCl, 20 mM Tris HCl, pH7.4 buffer containing 0.25% BSA to separate bound from free ligand. [^3H]compound bound to filters was quantified by liquid scintillation counting.
Binding reactions were performed in 96-well polypropylene plates at room temperature for 18 h. In 360 μL, membranes were incubated with 100 pM [^3H]compound and increasing concentrations of Test Compound. Non-specific binding was defined in the presence of 1 μM unlabeled compound. Reactions were transferred and filtered through 96-well glass fiber/C filter plates presoaked with 0.5% polyethylene imine. The filtered reactions were washed 5 times with 200 μL ice cold buffer containing 0.25% BSA. Bound radioactivity was determined by liquid scintillation counting.
For saturation experiments, non-specific binding was subtracted from total binding to provide specific binding and these values were recalculated in terms of pmol ligand bound per mg protein. Saturation curves were constructed and dissociation constants were calculated using the single site ligand binding model: Beq=(Bmax*X)/(X+Kd), where Beq is the amount of ligand bound at equilibrium, Bmax is the maximum receptor density, Kd is the dissociation constant for the ligand, and X is the free ligand concentration. For competition studies percent inhibition was determined and IC50 values were calculated using a 4 parameter logistic model (% inhibition=(A+((B−A)/(1+((x/C)^D)))) using XLfit, where A and B are the maximal and minimum inhibition respectively, C is the IC50 concentration and D is the (Hill) slope.
Example 39B. Tritiated Compound Binding to Membranes Isolated from Cells that Heterologous Express hNav1.7 and the β1 Subunit
Following the procedure described in Example 39A, and making modifications as required to: centrifuge supernatants at 100000×g instead of 10000×g; re-suspend pellets in a buffer containing 0.01% BSA in addition to 100 mM NaCl, 20 mM Tris HCl, pH 7.4 buffer, and 1% v/v […]; and storing membranes at −80° C. in single use aliquots instead of pooled.
Saturation experiments: Following the procedure described in Example 243A, and making modifications as required to incubate [3H]compound for 3 hours instead of 18 hours. […]

hNav1.7 [2] = biological target: T1, hNav1.7; assay: Electrophysiological assay (EP), voltage clamp on Syncropatch 384PE; assay type: cell-based; details: CHO cells expressing Nav1.7, holding potential −50 mV, 7.5 min compound incubation; read-out: EP_SP hNav1.7 EVO IC50
From the text: Example 39C. Electrophysiological Assay (EP) (In Vitro Assay)
Patch voltage clamp electrophysiology allows for the direct measurement and quantification of block of voltage-gated sodium channels (NaV's), and allows the determination of the time- and voltage-dependence of block which has been interpreted as differential binding to the resting, open, and inactivated states of the sodium channel (Hille, B., Journal of General Physiology (1977), 69: 497-515).
The following voltage clamp electrophysiology studies were performed on representative compounds using cells heterologously expressing Nav1.7 or Nav1.5 channels. cDNAs for Nav1.7 (NM_002977) and Nav1.5 (AC137587) were stably expressed in Chinese Hamstr Ovary (CHO) cells and CHL (Chinese Hamster Lung) cells respectively. Sodium currents were measured in the whole-cell configuration using Syncropatch 384PE (Nanlon Technologies, Germany). 1NPC®-384 chips with custom medium resistance and single hole mode are used. Internal solution consists of (in mM): 110 […], 10 CsCl, 20 EGTA, and 10 Hepes (pH adjusted to 7.2); and external solution contains (in mM): 60 NMDG, 80 NaCl, 4 KCl, 1 MgCl2, 2 CaCl2, 2 D-Glucose monohydrate, 10 Hepes (pH adjusted to 7.4 with NaOH).
After system flushing, testing compounds are dissolved in external solution containing 0.1% Pluronic F-127. The chip is moved into the measuring head and the instrument primes the chip with external and internal solutions. 10 l cells are added to the chip from a cell hotel, and a negative pressure of −50 mBar is applied to form a seal. Following treatment with seal enhancer solution and wash-off with external solution, negative pressure of −250 mbar is applied for 1 second to achieve the whole-cell configuration, followed by three washing steps in external solution. 20 µl of compounds is added to 40 µl in each well (1:3 dilution of compounds), and after mixing, 20 l is removed so the volume is retained at 40 ul. After approximately 13 minutes recordings, 20 µl/well of 2 uM TTX, or 333 uM Tetracaine (for Nav1.5) is added to achieve full block.
For voltage protocol, an holding potential of −50 mV is applied during the whole experiment. A depolarizing step is applied to −10 mV for 10 ms, followed by a hyperpolarization step to −150 mV for 20 ms to allow channel recovery from inactivation. A second depolarizing step is applied from −150 mV to −10 mV for 10 ms, where currents were measured to derive blocking effects of compounds. Inhibition is determined based on 7.5 min of compound incubation.

Row | Compound | IC50 (hNav1.7 [1]) | IC50 (hNav1.7 [2])
1 | COc1cc(-c2cccc(C(F)(F)F)c2)c(F)cc1N1C(=O)CC[C@H]2CN(S(=O)(=O)Nc3ccon3)CCC21 (stereo in doubt) [Example 36, (4aS,8aS)-1-(2-fluoro-5-methoxy-3′-(trifluoromethyl)-[1,1′-biphenyl]-4-yl)-N-(isoxazol-3-yl)-2-oxooctahydro-1,6-naphthyridine-6(2H)-sulfonamide] | 20.7 nM | 2.19 nM
2 | COc1cc(-c2cccc(C(F)(F)F)c2)c(F)cc1N1C(=O)CC[C@H]2CN(S(=O)(=O)Nc3ccon3)CCC21 (stereo in doubt) [Example 37, (4aS,8aR)-1-(2-fluoro-5-methoxy-3′-(trifluoromethyl)-[1,1′-biphenyl]-4-yl)-N-(isoxazol-3-yl)-2-oxooctahydro-1,6-naphthyridine-6(2H)-sulfonamide] | 761 nM | 12.9 nM
3 | COc1cc(-c2ccc(F)c(C(F)(F)F)c2)c(F)cc1N1C(=O)CO[C@@H]2CN(S(=O)(=O)Nc3ccon3)CC[C@H]21 [Example 1, (4aR,8aR)-1-(2,4′-difluoro-5-methoxy-3′-(trifluoromethyl)-[1,1′-biphenyl]-4-yl)-N-(isoxazol-3-yl)-2-oxohexahydro-1H-pyrido[3,4-b][1,4]oxazine-6(7H)-sulfonamide] | 44.3 nM | 1.12 nM
4 | COc1cc(-c2ccc(F)c(C(F)(F)F)c2)c(F)cc1N1C(=O)CO[C@H]2CN(S(=O)(=O)Nc3ccon3)CC[C@@H]21 [Example 2, (4aS,8aS)-1-(2,4′-difluoro-5-methoxy-3′-(trifluoromethyl)-[1,1′-biphenyl]-4-yl)-N-(isoxazol-3-yl)-2-oxohexahydro-1H-pyrido[3,4-b][1,4]oxazine-6(7H)-sulfonamide] | 38.4 nM | 0.915 nM
5 | COc1cc(-c2cccc(C(F)(F)F)c2)c(F)cc1N1C(=O)CO[C@@H]2CN(S(=O)(=O)Nc3ccon3)CC[C@H]21 [Example 3, (4aR,8aR)-1-(2-fluoro-5-methoxy-3′-(trifluoromethyl)-[1,1′-biphenyl]-4-yl)-N-(isoxazol-3-yl)-2-oxohexahydro-1H-pyrido[3,4-b][1,4]oxazine-6(7H)-sulfonamide] | 67 nM | 2.26 nM
6 | COc1cc(-c2cccc(C(F)(F)F)c2)c(F)cc1N1C(=O)CO[C@H]2CN(S(=O)(=O)Nc3ccon3)CC[C@@H]21 [Example 4, (4aS,8aS)-1-(2-fluoro-5-methoxy-3′-(trifluoromethyl)-[1,1′-biphenyl]-4-yl)-N-(isoxazol-3-yl)-2-oxohexahydro-1H-pyrido[3,4-b][1,4]oxazine-6(7H)-sulfonamide] | 60 nM | 3.52 nM
7 | COc1cc(-c2cc(F)cc(C(F)(F)F)c2)c(F)cc1N1C(=O)CO[C@@H]2CN(S(=O)(=O)Nc3ccon3)CC[C@H]21 [Example 5, (4aR,8aR)-1-(2,3′-difluoro-5-methoxy-5′-(trifluoromethyl)-[1,1′-biphenyl]-4-yl)-N-(isoxazol-3-yl)-2-oxohexahydro-1H-pyrido[3,4-b][1,4]oxazine-6(7H)-sulfonamide] | 79 nM | 2.79 nM
8 | COc1cc(-c2cc(F)cc(C(F)(F)F)c2)c(F)cc1N1C(=O)CO[C@H]2CN(S(=O)(=O)Nc3ccon3)CC[C@@H]21 [Example 6, (4aS,8aS)-1-(2,3′-difluoro-5-methoxy-5′-(trifluoromethyl)-[1,1′-biphenyl]-4-yl)-N-(isoxazol-3-yl)-2-oxohexahydro-1H-pyrido[3,4-b][1,4]oxazine-6(7H)-sulfonamide] | 52.9 nM | 1.84 nM
9 | COc1cc(-c2cc(C(F)(F)F)ccc2F)c(F)cc1N1C(=O)CO[C@@H]2CN(S(=O)(=O)Nc3ccon3)CC[C@H]21 [Example 7, (4aR,8aR)-1-(2,2′-difluoro-5-methoxy-5′-(trifluoromethyl)-[1,1′-biphenyl]-4-yl)-N-(isoxazol-3-yl)-2-oxohexahydro-1H-pyrido[3,4-b][1,4]oxazine-6(7H)-sulfonamide] | 167 nM | 5.76 nM
10 | COc1cc(-c2cc(C(F)(F)F)ccc2F)c(F)cc1N1C(=O)CO[C@H]2CN(S(=O)(=O)Nc3ccon3)CC[C@@H]21 [Example 8, (4aS,8aS)-1-(2,2′-difluoro-5-methoxy-5′-(trifluoromethyl)-[1,1′-biphenyl]-4-yl)-N-(isoxazol-3-yl)-2-oxohexahydro-1H-pyrido[3,4-b][1,4]oxazine-6(7H)-sulfonamide] | 82.8 nM | 4.92 nM
11 | COc1cc(-c2cccc(F)c2)c(F)cc1N1C(=O)CO[C@@H]2CN(S(=O)(=O)Nc3ccon3)CC[C@H]21 [Example 9, (4aR,8aR)-1-(2,3′-difluoro-5-methoxy-[1,1′-biphenyl]-4-yl)-N-(isoxazol-3-yl)-2-oxohexahydro-1H-pyrido[3,4-b][1,4]oxazine-6(7H)-sulfonamide] | 2000 nM | 19.4 nM
12 | COc1cc(-c2cccc(F)c2)c(F)cc1N1C(=O)CO[C@H]2CN(S(=O)(=O)Nc3ccon3)CC[C@@H]21 [Example 10, (4aS,8aS)-1-(2,3′-difluoro-5-methoxy-[1,1′-biphenyl]-4-yl)-N-(isoxazol-3-yl)-2-oxohexahydro-1H-pyrido[3,4-b][1,4]oxazine-6(7H)-sulfonamide] | 716 nM | 47.8 nM
13 | COc1cc(-c2cccc(C(F)(F)F)c2F)c(F)cc1N1C(=O)CO[C@@H]2CN(S(=O)(=O)Nc3ccon3)CC[C@H]21 [Example 11, (4aR,8aR)-1-(2,2′-difluoro-5-methoxy-3′-(trifluoromethyl)-[1,1′-biphenyl]-4-yl)-N-(isoxazol-3-yl)-2-oxohexahydro-1H-pyrido[3,4-b][1,4]oxazine-6(7H)-sulfonamide] | 230 nM | 11.2 nM
